Test results as given in publication doi:10.1101/212837v1 (biorxiv, 2017).

Biological target: GAA (human acid α-glucosidase; rhGAA) (Homo sapiens, UniProt P10253)
Assay type: biochemical

## OC[C@H]1OC(O)[C@H](O)[C@@H](O)[C@@H]1O (mixture of isomers) [glucose]
  Ki: 5.8 ± 0.6 mM
